Results: the NIST ThermoML archive (doi:10.1021/je0342668)
± gives the expanded uncertainty stated by the source.

Assay: molar heat capacity at constant pressure; xn = mol fraction of the nth substance listed
Conditions: Liquid, x2 = 0.568

CCCO [propan-1-ol] + O
Conditions | molar heat capacity at constant pressure [J/K/mol]
262.42 K | 106.61 ± 0.61
264.63 K | 107.35 ± 0.61
266.82 K | 108.31 ± 0.62
269.02 K | 109.17 ± 0.62
271.19 K | 109.88 ± 0.62
273.35 K | 110.58 ± 0.62
275.5 K | 111.1 ± 0.62
277.64 K | 111.89 ± 0.62
279.76 K | 112.63 ± 0.62
281.87 K | 113.37 ± 0.63
283.94 K | 114.17 ± 0.63
286 K | 114.78 ± 0.63
288.06 K | 115.38 ± 0.63
290.08 K | 116.09 ± 0.63
292.07 K | 116.6 ± 0.63
294.06 K | 117.18 ± 0.63
296.02 K | 117.95 ± 0.64
298.02 K | 118.53 ± 0.64
300.05 K | 119.17 ± 0.64
302.07 K | 119.94 ± 0.64
304.12 K | 120.61 ± 0.64
306.15 K | 121.22 ± 0.64
308.18 K | 121.92 ± 0.64
310.21 K | 122.56 ± 0.65
312.24 K | 123 ± 0.65
314.26 K | 123.59 ± 0.65
316.27 K | 124.29 ± 0.65
318.28 K | 124.81 ± 0.65
